Measured values reported in PubChem BioAssay (NCI).
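GI50: concentration for 50% inhibition of growth. Definition used: TGI = concentration required for complete inhibition of growth.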

Experiments:
Test in all cases: growth of human tumour cells (NCI), 384-well format
786-0 renal = test system: 786-0 renal
BT-549 breast = test system: BT-549 breast
CAKI-1 renal = test system: CAKI-1 renal
COLO 205 colon = test system: COLO 205 colon
DU-145 prostate = test system: DU-145 prostate
EKVX NSCLC = test system: EKVX NSCLC
HCT-116 colon = test system: HCT-116 colon
HCT-15 colon = test system: HCT-15 colon
HL-60(TB) leukemia = test system: HL-60(TB) leukemia
HOP-62 NSCLC = test system: HOP-62 NSCLC
HOP-92 NSCLC = test system: HOP-92 NSCLC
HS 578T breast = test system: HS 578T breast
HT29 colon = test system: HT29 colon
IGROV1 ovarian = test system: IGROV1 ovarian
K-562 leukemia = test system: K-562 leukemia
KM12 colon = test system: KM12 colon
LOX IMVI melanoma = test system: LOX IMVI melanoma
M14 melanoma = test system: M14 melanoma
MALME-3M melanoma = test system: MALME-3M melanoma
MCF7 breast = test system: MCF7 breast
MDA-MB-435 melanoma = test system: MDA-MB-435 melanoma
MDA-MB-468 breast = test system: MDA-MB-468 breast
MOLT-4 leukemia = test system: MOLT-4 leukemia
NCI-H23 lung = test system: NCI-H23 lung
NCI-H322M lung = test system: NCI-H322M lung
NCI-H460 NSCLC = test system: NCI-H460 NSCLC
NCI-H522 lung = test system: NCI-H522 lung
NCI/ADR-RES ovarian = test system: NCI/ADR-RES ovarian
OVCAR-3 ovarian = test system: OVCAR-3 ovarian
OVCAR-4 ovarian = test system: OVCAR-4 ovarian
OVCAR-8 ovarian = test system: OVCAR-8 ovarian
PC-3 prostate = test system: PC-3 prostate
RXF 393 renal = test system: RXF 393 renal
SF-268 CNS = test system: SF-268 CNS
SF-539 CNS = test system: SF-539 CNS
SK-MEL-2 melanoma = test system: SK-MEL-2 melanoma
SK-MEL-28 melanoma = test system: SK-MEL-28 melanoma
SK-MEL-5 melanoma = test system: SK-MEL-5 melanoma
SK-OV-3 ovarian = test system: SK-OV-3 ovarian
SN12C renal = test system: SN12C renal
SNB-19 CNS = test system: SNB-19 CNS
SNB-75 CNS = test system: SNB-75 CNS
T-47D breast = test system: T-47D breast
TK-10 renal = test system: TK-10 renal
U251 glioblastoma = test system: U251 glioblastoma
UACC-257 melanoma = test system: UACC-257 melanoma
UACC-62 melanoma = test system: UACC-62 melanoma

CS(=O)(=O)N1CCN(Cc2cc3nc(-c4cccc5[nH]ncc45)nc(N4CCOCC4)c3s2)CC1
GI50 ([…]-0 renal): 492 nM | TGI (786-0 renal): 2770 nM | GI50 (BT-549 breast): 202 nM | TGI (BT-549 breast): 2030 nM | GI50 (CAKI-1 renal): 260 nM | TGI (CAKI-1 renal): 6810 nM | GI50 (COLO 205 colon): 480 nM | TGI (COLO 205 colon): 34200 nM | GI50 (DU-145 prostate): 581 nM | TGI (DU-145 prostate): > 100000 nM | GI50 (EKVX NSCLC): 185 nM | TGI (EKVX NSCLC): 2700 nM | GI50 (HCT-116 colon): 1930 nM | TGI (HCT-116 colon): > 100000 nM | GI50 (HCT-15 colon): 708 nM | TGI (HCT-15 colon): 24100 nM | GI50 (HL-60(TB) leukemia): 46.3 nM | TGI (HL-60(TB) leukemia): 593 nM | GI50 (HOP-62 NSCLC): 3110 nM | TGI (HOP-62 NSCLC): > 100000 nM | GI50 (HOP-92 NSCLC): 202 nM | TGI (HOP-92 NSCLC): 1490 nM | GI50 (HS 578T breast): 295 nM | TGI (HS 578T breast): 2150 nM | GI50 (HT29 colon): 744 nM | TGI (HT29 colon): 14700 nM | GI50 (IGROV1 ovarian): 38.6 nM | TGI (IGROV1 ovarian): 215 nM | GI50 (K-562 leukemia): 5480 nM | TGI (K-562 leukemia): > 100000 nM | GI50 (KM12 colon): 888 nM | TGI (KM12 colon): > 100000 nM | GI50 (LOX IMVI melanoma): 827 nM | TGI (LOX IMVI melanoma): 11700 nM | GI50 (M14 melanoma): 916 nM | TGI (M14 melanoma): > 100000 nM | GI50 (MALME-3M melanoma): 223 nM | TGI (MALME-3M melanoma): 3030 nM | GI50 (MCF7 breast): 58.2 nM | TGI (MCF7 breast): 16300 nM | GI50 (MDA-MB-435 melanoma): 1180 nM | TGI (MDA-MB-435 melanoma): 11900 nM | GI50 (MDA-MB-468 breast): 127 nM | TGI (MDA-MB-468 breast): 685 nM | GI50 (MOLT-4 leukemia): 82.2 nM | TGI (MOLT-4 leukemia): 363 nM | GI50 (NCI-H23 lung): 570 nM | TGI (NCI-H23 lung): 18600 nM | GI50 (NCI-H322M lung): 442 nM | TGI (NCI-H322M lung): 5320 nM | GI50 (NCI-H460 NSCLC): 206 nM | TGI (NCI-H460 NSCLC): 47900 nM | GI50 (NCI-H522 lung): 391 nM | TGI (NCI-H522 lung): 7580 nM | GI50 (NCI/ADR-RES ovarian): 1700 nM | TGI (NCI/ADR-RES ovarian): 49900 nM | GI50 (OVCAR-3 ovarian): 280 nM | TGI (OVCAR-3 ovarian): 4390 nM | GI50 (OVCAR-4 ovarian): 1380 nM | TGI (OVCAR-4 ovarian): 41200 nM | GI50 (OVCAR-8 ovarian): 1110 nM | TGI (OVCAR-8 ovarian): > 100000 nM | GI50 (PC-3 prostate): 165 nM | TGI (PC-3 prostate): 7730 nM | GI50 (RXF 393 renal): 152 nM | TGI (RXF 393 renal): 638 nM | GI50 (SF-268 CNS): 1510 nM | TGI (SF-268 CNS): 23300 nM | GI50 (SF-539 CNS): 446 nM | TGI (SF-539 CNS): > 100000 nM | GI50 (SK-MEL-2 melanoma): 7040 nM | TGI (SK-MEL-2 melanoma): > 100000 nM | GI50 (SK-MEL-28 melanoma): 202 nM | TGI (SK-MEL-28 melanoma): 4180 nM | GI50 (SK-MEL-5 melanoma): 795 nM | TGI (SK-MEL-5 melanoma): 8530 nM | GI50 (SK-OV-3 ovarian): 169 nM | TGI (SK-OV-3 ovarian): 1620 nM | GI50 (SN12C renal): 328 nM | TGI (SN12C renal): 67200 nM | GI50 (SNB-19 CNS): 4380 nM | TGI (SNB-19 CNS): > 100000 nM | GI50 (SNB-75 CNS): 102 nM | TGI (SNB-75 CNS): 533 nM | GI50 (T-47D breast): 49.4 nM | TGI (T-47D breast): 341 nM | GI50 (TK-10 renal): 203 nM | TGI (TK-10 renal): 1120 nM | GI50 (U251 glioblastoma): 2340 nM | TGI (U251 glioblastoma): > 100000 nM | GI50 (UACC-257 melanoma): 2330 nM | TGI (UACC-257 melanoma): > 100000 nM | GI50 (UACC-62 melanoma): 238 nM | TGI (UACC-62 melanoma): 1930 nM

O=C(CCCCCCC(=O)N/N=C/c1ccc(N(c2ccccc2)c2ccccc2)cc1)NO
GI50 ([…]-0 renal): 1840 nM | TGI (786-0 renal): 3820 nM | GI50 (BT-549 breast): 2420 nM | TGI (BT-549 breast): 4880 nM | GI50 (CAKI-1 renal): 256 nM | TGI (CAKI-1 renal): 1140 nM | GI50 (COLO 205 colon): 2120 nM | TGI (COLO 205 colon): 3850 nM | GI50 (DU-145 prostate): 1740 nM | TGI (DU-145 prostate): 3370 nM | GI50 (EKVX NSCLC): 2620 nM | TGI (EKVX NSCLC): 6520 nM | GI50 (HCT-116 colon): 702 nM | TGI (HCT-116 colon): 1890 nM | GI50 (HCT-15 colon): 2800 nM | TGI (HCT-15 colon): 7260 nM | GI50 (HL-60(TB) leukemia): 1280 nM | TGI (HL-60(TB) leukemia): 2560 nM | GI50 (HOP-62 NSCLC): 2040 nM | TGI (HOP-62 NSCLC): 5860 nM | GI50 (HOP-92 NSCLC): 1050 nM | TGI (HOP-92 NSCLC): 2620 nM | GI50 (HS 578T breast): 2110 nM | TGI (HS 578T breast): 4370 nM | GI50 (HT29 colon): 1800 nM | TGI (HT29 colon): 3450 nM | GI50 (IGROV1 ovarian): 413 nM | TGI (IGROV1 ovarian): 1460 nM | GI50 (K-562 leukemia): 1420 nM | TGI (K-562 leukemia): 2750 nM | GI50 (KM12 colon): 2630 nM | TGI (KM12 colon): 9170 nM | GI50 (LOX IMVI melanoma): 190 nM | TGI (LOX IMVI melanoma): 369 nM | GI50 (M14 melanoma): 2700 nM | TGI (M14 melanoma): 7060 nM | GI50 (MALME-3M melanoma): 2070 nM | TGI (MALME-3M melanoma): 4620 nM | GI50 (MCF7 breast): 297 nM | TGI (MCF7 breast): 1720 nM | GI50 (MDA-MB-435 melanoma): 3910 nM | TGI (MDA-MB-435 melanoma): 11900 nM | GI50 (MDA-MB-468 breast): 137 nM | TGI (MDA-MB-468 breast): 277 nM | GI50 (MOLT-4 leukemia): 471 nM | TGI (MOLT-4 leukemia): 1510 nM | GI50 (NCI-H23 lung): 1560 nM | TGI (NCI-H23 lung): 3170 nM | GI50 (NCI-H322M lung): 3110 nM | TGI (NCI-H322M lung): 9540 nM | GI50 (NCI-H460 NSCLC): 1160 nM | TGI (NCI-H460 NSCLC): 2450 nM | GI50 (NCI-H522 lung): 1440 nM | TGI (NCI-H522 lung): 4340 nM | GI50 (NCI/ADR-RES ovarian): 4360 nM | TGI (NCI/ADR-RES ovarian): 15900 nM | GI50 (OVCAR-3 ovarian): 673 nM | TGI (OVCAR-3 ovarian): 1900 nM | GI50 (OVCAR-4 ovarian): 686 nM | TGI (OVCAR-4 ovarian): 2000 nM | GI50 (OVCAR-8 ovarian): 1500 nM | TGI (OVCAR-8 ovarian): 3880 nM | GI50 (PC-3 prostate): 1770 nM | TGI (PC-3 prostate): 4330 nM | GI50 (RXF 393 renal): 790 nM | TGI (RXF 393 renal): 2100 nM | GI50 (SF-268 CNS): 1990 nM | TGI (SF-268 CNS): 3940 nM | GI50 (SF-539 CNS): 2150 nM | TGI (SF-539 CNS): 4880 nM | GI50 (SK-MEL-2 melanoma): 1450 nM | TGI (SK-MEL-2 melanoma): 2830 nM | GI50 (SK-MEL-28 melanoma): 2890 nM | TGI (SK-MEL-28 melanoma): 8290 nM | GI50 (SK-MEL-5 melanoma): 1630 nM | TGI (SK-MEL-5 melanoma): 3100 nM | GI50 (SK-OV-3 ovarian): 1370 nM | TGI (SK-OV-3 ovarian): 2830 nM | GI50 (SN12C renal): 1830 nM | TGI (SN12C renal): 3620 nM | GI50 (SNB-19 CNS): 2780 nM | TGI (SNB-19 CNS): 7200 nM | GI50 (SNB-75 CNS): 2820 nM | TGI (SNB-75 CNS): 7800 nM | GI50 (T-47D breast): 562 nM | TGI (T-47D breast): 1600 nM | GI50 (TK-10 renal): 255 nM | TGI (TK-10 renal): 720 nM | GI50 (U251 glioblastoma): 1610 nM | TGI (U251 glioblastoma): 3070 nM | GI50 (UACC-257 melanoma): 589 nM | TGI (UACC-257 melanoma): 1310 nM | GI50 (UACC-62 melanoma): 397 nM | TGI (UACC-62 melanoma): 1440 nM
